Data: EP2014281A1, “Use of inhibitors of sirtuins and/or ampk for the preparation of a medicament for the treatment of polyalanine diseases” (INSTITUT NATIONAL DE LA SANTE ET DE LA RECHERCHE MEDICALE …, priority 2007, dated 2009)

How the values were obtained:
[1] = tested on: COS-7 cells overexpressing GFP-PABPN1 fusion proteins with 0, 10, or 17 Alas; experiment: Cell survival by live microscopy of GFP positive cells; assay type: cell-based; details: day 5; 0.5 µM resveratrol, 2.5 µM sirtinol
Method: (§1) Cell culture and transfection. Twenty-four hours before transfection, COS-7 cells were seeded in Dulbeco's modified Eagle's medium (DMEM) containing 10% fetal calf serum at a concentration of 2 x 10^5 cells per well in 12-well plates suited for the automated live microscopy. The cells were transfected with plasmid DNA (1 µg) pre-complexed with the Plus reagent and diluted in Lipofectamine reagent according to the manufacturer's instructions. To check the protein expression before and after the drug treatment, parallel plates were prepared for Western blotting.
(§2) Drug treatment. Resveratrol and Sirtinol were dissolved in DMSO. In the initial cell treatment experiments, we performed dose-response experiments, using non-transfected cells, to define the most appropriate doses to be used for the drugs. […] The drugs or vehicle as a control were applied on transfected cells 24 h post-transfection. Cells (in the 12-well plate) were then incubated for 24 h before analysis using a Leica automated microscope stage.
Assessment of cell survival. Cell survival was assessed using live microscopy as previously described^12. Briefly, 12-well plates containing transfected cells treated or not treated with drugs were placed on a live stage microscope equipped with a digital camera, CO2 incubation chamber, and a motorized X-Y-axis stage and connected to the Openlab software (Improvision). The microscopic robotic stage allows parallel tracking of multiple fields, both within a single well and in multiple wells. […] The system was set to memorize three different fields of cells (from each separate well) and control the stage return to the same position at pre-fixed intervals. The microscope allowed us to return back to the same point and count the same cells in the field. Cell survival was monitored every 24 h for five consecutive days, with Day 1 corresponding to 24 h post-transfection before the drug treatment. On average, 150 cells per field per construct were counted. Cell viability was assayed by analysis of GFP positive cells. The average of cell survival of each group of cells was scored for the three different chosen fields and percent rescue calculated as ((test - control)/control*100). Three independent experiments were performed. ANOVA tests and Tukey's Multiple Comparison Test were used for statistics.

[2] = tested on: C. elegans transgenics expressing human PABPN1 with 10 or 13 Alas; experiment: Muscle nuclei loss (MNL) drug assay in transgenic nematodes, counting GFP positive muscle cell nuclei; assay type: in vivo; details: for muscle nuclei loss (MNL) in controls: PABPN1-A10 / control animals; for genetic dependence of the effect on MNL: PABPN1-A13 animals with null mutation of sir-2.1 (ok434), daf-16 (mu86) or aak-2 (ok524); for muscle nuclei loss (MNL) caused by PABPN1-A13 expression: PABPN1-A13 animals, 65 hours at 20°C in liquid culture, maximal achievable rescue 28 %
Method: Analysis of muscle cells. Muscle cells in transgenic hermaphrodites were examined for loss of nuclei through counting GFP positive cells. Percent rescue was calculated as ((test - control)/control*100). Muscle cells in transgenic hermaphrodites were examined for PABPN1 expression through fluorescent microscopy. Whole animals were permeabilized and stained with the PABPN1 antiserum VEADa-14 (Centre de Recherche du CHUM, Montreal; 1:50), and fluorescent microscopy was conducted on a Zeiss microscope (Axioplan Imaging II). Observations of the structure of body wall muscles in young adult transgenics after Phalloidin-Rhodamin (FluoProbes) staining were performed as previously described^51. ANOVA tests and Tukey's Multiple Comparison Test were used for statistics.
(§3) Drug assays. Synchronized populations of L1 larvae expressing GFP and PABPN1 with 10 or 13 Alas were obtained by hypochlorite extraction. To test for muscle nuclei loss, animals were grown in 96-well microtiter plates in 50 µl liquid culture medium with sodium butyrate, resveratrol, sirtinol or splitomicin for 65 hours at 20°C, transferred to agarose pads on slides, and scored for cell nuclei loss at 10X-63X using a Zeiss fluorescence microscope (Axioplan Imaging II). 60 worms were scored per point and three independent assays performed. To test for motility, the synchronized L1 larvae were grown on NGM plates containing drugs until they became 1-5 day old adults. Animals were transferred to new plates every other day to keep them separate from progeny, then transferred to confluent OP-50.1 bacteria test plates and assessed for the number of whole body bends as described above (see Motility assays).

non-transfected cells = experiment: Dose-response experiments for cell toxicity; assay type: cell-based; details: five days, 0.5 µM resveratrol, 2.5 µM sirtinol
Method: as §2

[3] = tested on: C. elegans transgenics expressing human PABPN1 with 10 or 13 Alas; experiment: Motility drug assay, number of whole body bends; assay type: in vivo; details: for genetic dependence of the effect on abnormal motility: PABPN1-A13 animals with null mutation of sir-2.1 (ok434), daf-16 (mu86) or aak-2 (ok524); for abnormal motility (frequency of body bends) produced by mutant PABPN1: PABPN1-A13 animals, sirtinol and splitomicin at day 5, resveratrol at day 3 of adulthood; for motility in controls: PABPN1-A10 / control animals
Method: Motility assays. 1-5 day old adult hermaphrodites were laid on confluent OP-50-1. The animals were then scored immediately for whole body bends for a duration of 20 seconds as previously described^23, or photos of the tracks were taken using a 2,5X objective on a Zeiss microscope and their amplitudes measured using the Meta View software. 100 animals were scored per experiment and three independent assays performed. Percent rescue of the body bends phenotype was calculated as ((control - test)/control*100) and percent rescue of the sinusoid wave phenotype as ((test - control)/control*100). ANOVA tests and Tukey's Multiple Comparison Tests were used for statistics.
as §3

[4] = tested on: COS-7 cells transfected with normal (10 Alas) and mutant (17 Alas) PABPN1; experiment: Histone acetylation analysis by western blot; assay type: cell-based; details: COS-7 cells expressing normal or mutant PABPN1, 500 µM or 5 mM for the last 24h
Method: as §1
Histone acetylation analysis. COS-7 cells transfected with normal (10 Alas) and mutant (17 Alas) PABPN1 cDNAs were plated for 48h and treated for the last 24h with 500 µM or 5 mM sodium butyrate. Controls included non-butyrate-treated cells. Cells were lysed in 10 mM Tris, 50 mM sodium bisulfite, 1% triton X-100, 10 mM magnesium chloride, 8.6% sucrose, pH 6.5 and a cocktail of proteases inhibitors for 10 min. Proteins were extracted under acidic conditions as described^53. Ten micrograms of whole cell extract were analysed by western blot. […] Signals were quantified using NIH IMAGE 1.62 and t tests used for statistical analysis.

Q: Which results are given for Oc1ccc(C=Cc2cc(O)cc(O)c2)cc1 [resveratrol]?
A: cell survival in cells overexpressing GFP-PABPN1 with 0 and 10 Alas [1]: no effects; cell survival in mutant PABPN1-A17 cells [1]: slightly decreased cell survival; muscle nuclei loss (MNL) in controls [2]: no effect in PABPN1-A10 animals; genetic dependence of the effect on MNL [2]: mediated by sir-2.1 and aak-2; muscle nuclei loss (MNL) caused by PABPN1-A13 expression [2]: enhanced MNL; cell toxicity (non-transfected cells): did not cause cell toxicity; genetic dependence of the effect on abnormal motility [3]: daf-16 independent and sir-2.1 and aak-2 dependent; abnormal motility (frequency of body bends) produced by mutant PABPN1 [3]: enhancement of abnormal motility

Q: With CC(NC(=O)c1ccccc1/N=C/c1c(O)ccc2ccccc12)c1ccccc1 (stereo not shown) [sirtinol, 2-[(2-Hydroxynaphthalen-1-yl-methylene)amino]-N-(1-phenethyl)benzamide] as the compound, how does the “cell survival in cells overexpressing GFP-PABPN1 with 0 and 10 Alas” value [1] read?
A: Its value is “no effects”.

Q: What about the “cell survival in mutant PABPN1-A17 cells” value [1] of the same compound?
A: Its value is “strongly enhanced cell survival”.

Q: And the “genetic dependence of the effect on MNL” value [2]?
A: Its value is “dependent on sir-2.1, daf-16 but not aak-2”.

Q: What about the “muscle nuclei loss (MNL) caused by PABPN1-A13 expression” value (from here on “muscle nuclei loss (MNL) caused”) [2] of the same compound?
A: Its value is “dose-dependent rescue of MNL”.

Q: What about the motility in controls [3] of the same compound?
A: Its motility in controls is “no effect detected”.

Q: And the “genetic dependence of the effect on abnormal motility” value [3]?
A: The value was “dependent on sir-2.1 and daf-16”.

Q: And the “abnormal motility (frequency of body bends) produced by mutant PABPN1” value [3]?
A: The value was “rescued abnormal motility”.

Q: CCCC(=O)[O-].[Na+] [sodium butyrate] was tested. Which “level of acetylation of histone H3” value [4] did it give?
A: The value was “increased”.

Q: And the “level of acetylation of histone H4” value [4]?
A: Its value is “increased”.

Q: And the “muscle nuclei loss (MNL) caused” value [2]?
A: The value was “strong (the maximal achievable rescue is 28 %) rescue”.

Q: O=C1CCc2c(ccc3ccccc23)O1 [splitomicin, 1,2-Dihydro-3H-naphtho[2,1-b]pyran-3-one] was tested. Which “muscle nuclei loss (MNL) in controls” value [2] did it give?
A: The value was “no effect in controls”.

Q: What about the “muscle nuclei loss (MNL) caused” value [2] of the same compound?
A: Its value is “rescued the MNL”.

Q: And the motility in controls [3]?
A: The motility in controls was “no effect in controls”.

Q: And the “abnormal motility (frequency of body bends) produced by mutant PABPN1” value [3]?
A: The value was “rescued the MNL and abnormal motility”.
